“And” between values parts separate entries of the source, which are not always exact repeats. Equal entries are not always repeated.
System: 485368-065-R4-J2-PDC spheroids with HUVEC/MSC, viability
Test: Anticancer human tumor 485368-065-R4-J2-PDC patient-derived pancreatic carcinoma cell line growth inhibition [CLK]
Conditions: for viability, T/C: stronger effect = lower value
Method in brief: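 Multi-cell-type spheroids combined patient-derived tumor cells with HUVEC endothelial cells and human mesenchymal stem cells. Paired agents were dosed in half-log steps down from about clinical Cmax, or from 10 microM where Cmax was unknown.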

[1] = curve of first compound, second compound 0.0316 µM
[2] = curve of first compound, second compound 0.1 µM
[3] = curve of first compound, second compound 0.316 µM
[4] = curve of first compound, second compound 1 µM
[5] = curve of first compound, second compound 3.16 µM
[6] = curve of first compound, second compound 10 µM
[7] = second compound 0.0316 µM, first compound 0.0316 µM
[8] = second compound 0.0316 µM, first compound 0.1 µM
[9] = second compound 0.0316 µM, first compound 0.316 µM
[10] = second compound 0.0316 µM, first compound 1 µM
[11] = second compound 0.0316 µM, first compound 3.16 µM
[12] = second compound 0.0316 µM, first compound 10 µM
[13] = second compound 0.1 µM, first compound 0.0316 µM
[14] = second compound 0.1 µM, first compound 0.1 µM
[15] = second compound 0.1 µM, first compound 0.316 µM
[16] = second compound 0.1 µM, first compound 1 µM
[17] = second compound 0.1 µM, first compound 3.16 µM
[18] = second compound 0.1 µM, first compound 10 µM
[19] = second compound 0.316 µM, first compound 0.0316 µM
[20] = second compound 0.316 µM, first compound 0.1 µM
[21] = second compound 0.316 µM, first compound 0.316 µM
[22] = second compound 0.316 µM, first compound 1 µM
[23] = second compound 0.316 µM, first compound 3.16 µM
[24] = second compound 0.316 µM, first compound 10 µM
[25] = second compound 1 µM, first compound 0.0316 µM
[26] = second compound 1 µM, first compound 0.1 µM
[27] = second compound 1 µM, first compound 0.316 µM
[28] = second compound 1 µM, first compound 1 µM
[29] = second compound 1 µM, first compound 3.16 µM
[30] = second compound 1 µM, first compound 10 µM
[31] = second compound 3.16 µM, first compound 0.0316 µM
[32] = second compound 3.16 µM, first compound 0.1 µM
[33] = second compound 3.16 µM, first compound 0.316 µM
[34] = second compound 3.16 µM, first compound 1 µM
[35] = second compound 3.16 µM, first compound 3.16 µM
[36] = second compound 3.16 µM, first compound 10 µM
[37] = second compound 10 µM, first compound 0.0316 µM
[38] = second compound 10 µM, first compound 0.1 µM
[39] = second compound 10 µM, first compound 0.316 µM
[40] = second compound 10 µM, first compound 1 µM
[41] = second compound 10 µM, first compound 3.16 µM
[42] = second compound 10 µM, first compound 10 µM
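Also: spheroids exposed to compounds for seven days.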
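For viability, T/C in this document: 100% = DMSO vehicle control wells.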

## Nc1ccn(C2OC(CO)C(O)C2(F)F)c(=O)n1 (configuration not stated) + CN1CCN(c2cc(C(=O)Nc3cc4cc(-c5cnn(C)c5)ccc4cn3)ccn2)CC1
[1]
  IC50: < 31.6 nM
[2]
  IC50: < 31.6 nM
[3]
  IC50: < 31.6 nM
[4]
  IC50: < 31.6 nM
[5]
  IC50: < 31.6 nM
[6]
  IC50: < 31.6 nM
[7]
  viability, T/C: 48.5%
[8]
  viability, T/C: 32.7%
[9]
  viability, T/C: 24.1%
[10]
  viability, T/C: 24.2%
[11]
  viability, T/C: 25.3%
[12]
  viability, T/C: 21.6%
[13]
  viability, T/C: 39.2%
[14]
  viability, T/C: 21.1%
[15]
  viability, T/C: 19.5%
[16]
  viability, T/C: 16.6%
[17]
  viability, T/C: 16.6%
[18]
  viability, T/C: 13.8%
[19]
  viability, T/C: 28.5%
[20]
  viability, T/C: 16.6%
[21]
  viability, T/C: 14.1%
[22]
  viability, T/C: 14.9%
[23]
  viability, T/C: 14.1%
[24]
  viability, T/C: 12.8%
[25]
  viability, T/C: 0.77%
[26]
  viability, T/C: 2.15%
[27]
  viability, T/C: 3.11%
[28]
  viability, T/C: 1.96%
[29]
  viability, T/C: 2.6%
[30]
  viability, T/C: 3.01%
[31]
  viability, T/C: 1.85%
[32]
  viability, T/C: 1.43%
[33]
  viability, T/C: 2.71%
[34]
  viability, T/C: 4.76%
[35]
  viability, T/C: 2.68%
[36]
  viability, T/C: 5.26%
[37]
  viability, T/C: 1.32%
[38]
  viability, T/C: 2.34%
[39]
  viability, T/C: 1.93%
[40]
  viability, T/C: 2.61%
[41]
  viability, T/C: 2.98%
[42]
  viability, T/C: 2.55%

## O=c1[nH]cc(F)c(=O)[nH]1
Compound 0.0316 µM
  viability, T/C: 95.5% and 88.4%
Compound 0.1 µM
  viability, T/C: 96.6% and 84.4%
Compound 0.316 µM
  viability, T/C: 95.6% and 87.4%
Compound 1 µM
  viability, T/C: 96.9% and 95.8%
Compound 3.16 µM
  viability, T/C: 96.6% and 96%
Compound 10 µM
  viability, T/C: 88.5% and 82.3%
Curve of compound
  IC50: > 10000 nM

## Nc1ccccc1NC(=O)c1ccc(CNC(=O)OCc2cccnc2)cc1 + CN1CCN(c2cc(C(=O)Nc3cc4cc(-c5cnn(C)c5)ccc4cn3)ccn2)CC1
[1]
  IC50: 6960 nM
[2]
  IC50: 7560 nM
[3]
  IC50: 2520 nM
[4]
  IC50: < 31.6 nM
[5]
  IC50: < 31.6 nM
[6]
  IC50: < 31.6 nM
[7]
  viability, T/C: 88.7%
[8]
  viability, T/C: 105%
[9]
  viability, T/C: 91%
[10]
  viability, T/C: 97.7%
[11]
  viability, T/C: 91.6%
[12]
  viability, T/C: 30.7%
[13]
  viability, T/C: 109%
[14]
  viability, T/C: 118%
[15]
  viability, T/C: 99.1%
[16]
  viability, T/C: 102%
[17]
  viability, T/C: 93.1%
[18]
  viability, T/C: 36.2%
[19]
  viability, T/C: 81.1%
[20]
  viability, T/C: 82.1%
[21]
  viability, T/C: 66.8%
[22]
  viability, T/C: 68.6%
[23]
  viability, T/C: 45.5%
[24]
  viability, T/C: 15.6%
[25]
  viability, T/C: 1.64%
[26]
  viability, T/C: 1.49%
[27]
  viability, T/C: 1.21%
[28]
  viability, T/C: 0.42%
[29]
  viability, T/C: 0.41%
[30]
  viability, T/C: 1.05%
[31]
  viability, T/C: 1.12%
[32]
  viability, T/C: 1.85%
[33]
  viability, T/C: 3.03%
[34]
  viability, T/C: 1.14%
[35]
  viability, T/C: 1.31%
[36]
  viability, T/C: 1.7%
[37]
  viability, T/C: 1.94%
[38]
  viability, T/C: 2.06%
[39]
  viability, T/C: 1.81%
[40]
  viability, T/C: 2.05%
[41]
  viability, T/C: 1.05%
[42]
  viability, T/C: 1.74%

## CC(=O)O[C@H]1C(=O)[C@@]2(C)[C@H]([C@H](OC(=O)c3ccccc3)[C@]3(O)C[C@H](OC(=O)[C@H](O)[C@@H](NC(=O)c4ccccc4)c4ccccc4)C(C)=C1C3(C)C)[C@]1(OC(C)=O)CO[C@@H]1C[C@@H]2O + CN1CCN(c2cc(C(=O)Nc3cc4cc(-c5cnn(C)c5)ccc4cn3)ccn2)CC1
[1]
  IC50: < 31.6 nM
[2]
  IC50: < 31.6 nM
[3]
  IC50: < 31.6 nM
[4]
  IC50: < 31.6 nM
[5]
  IC50: < 31.6 nM
[6]
  IC50: < 31.6 nM
[7]
  viability, T/C: 49.1%
[8]
  viability, T/C: 41.3%
[9]
  viability, T/C: 38.5%
[10]
  viability, T/C: 46.2%
[11]
  viability, T/C: 39.5%
[12]
  viability, T/C: 55.3%
[13]
  viability, T/C: 37.3%
[14]
  viability, T/C: 39.4%
[15]
  viability, T/C: 30.8%
[16]
  viability, T/C: 36%
[17]
  viability, T/C: 36.8%
[18]
  viability, T/C: 45.2%
[19]
  viability, T/C: 30.7%
[20]
  viability, T/C: 28.5%
[21]
  viability, T/C: 28.2%
[22]
  viability, T/C: 25.4%
[23]
  viability, T/C: 28.7%
[24]
  viability, T/C: 35.5%
[25]
  viability, T/C: 0.77%
[26]
  viability, T/C: 0.76%
[27]
  viability, T/C: 0.7%
[28]
  viability, T/C: 1.78%
[29]
  viability, T/C: 1%
[30]
  viability, T/C: 1.89%
[31]
  viability, T/C: 2.34%
[32]
  viability, T/C: 2.46%
[33]
  viability, T/C: 1.31%
[34]
  viability, T/C: 2.13%
[35]
  viability, T/C: 1.56%
[36]
  viability, T/C: 3.41%
[37]
  viability, T/C: 1.54%
[38]
  viability, T/C: 2.06%
[39]
  viability, T/C: 2.24%
[40]
  viability, T/C: 1.65%
[41]
  viability, T/C: 2.6%
[42]
  viability, T/C: 1.89%

## CC(Nc1ccc2c(c1)OCCn1cc(N3C(=O)OCC3C(F)F)nc1-2)C(N)=O (configuration not stated) + CN1CCN(c2cc(C(=O)Nc3cc4cc(-c5cnn(C)c5)ccc4cn3)ccn2)CC1
[1]
  IC50: > 10000 nM
[2]
  IC50: > 10000 nM
[3]
  IC50: 158 nM
[4]
  IC50: < 31.6 nM
[5]
  IC50: < 31.6 nM
[6]
  IC50: < 31.6 nM
[7]
  viability, T/C: 92.4%
[8]
  viability, T/C: 109%
[9]
  viability, T/C: 103%
[10]
  viability, T/C: 83.3%
[11]
  viability, T/C: 78.8%
[12]
  viability, T/C: 62.3%
[13]
  viability, T/C: 98.7%
[14]
  viability, T/C: 95.5%
[15]
  viability, T/C: 93%
[16]
  viability, T/C: 68.8%
[17]
  viability, T/C: 58.6%
[18]
  viability, T/C: 53.4%
[19]
  viability, T/C: 68.9%
[20]
  viability, T/C: 55.8%
[21]
  viability, T/C: 41.9%
[22]
  viability, T/C: 30.3%
[23]
  viability, T/C: 27.2%
[24]
  viability, T/C: 20.7%
[25]
  viability, T/C: 1.25%
[26]
  viability, T/C: 1.05%
[27]
  viability, T/C: 0.92%
[28]
  viability, T/C: 0.74%
[29]
  viability, T/C: 1.65%
[30]
  viability, T/C: 1.84%
[31]
  viability, T/C: 2.26%
[32]
  viability, T/C: 1.12%
[33]
  viability, T/C: 3.5%
[34]
  viability, T/C: 2.02%
[35]
  viability, T/C: 2.42%
[36]
  viability, T/C: 2.95%
[37]
  viability, T/C: 1.54%
[38]
  viability, T/C: 2.13%
[39]
  viability, T/C: 2.05%
[40]
  viability, T/C: 2.62%
[41]
  viability, T/C: 2.43%
[42]
  viability, T/C: 2.04%

## CCCS(=O)(=O)Nc1ccc(F)c(C(=O)c2c[nH]c3ncc(-c4ccc(Cl)cc4)cc23)c1F + CNC(=O)c1ccc(Nc2nc(OC3CCCC3)c3c(-c4ccc5nc(C)oc5c4)c[nH]c3n2)c(OC)c1
[1]
  IC50: > 10000 nM
[2]
  IC50: > 10000 nM
[3]
  IC50: > 10000 nM
[4]
  IC50: > 10000 nM
[5]
  IC50: > 10000 nM
[6]
  IC50: > 10000 nM
[7]
  viability, T/C: 92.6%
[8]
  viability, T/C: 95.1%
[9]
  viability, T/C: 93.2%
[10]
  viability, T/C: 97.5%
[11]
  viability, T/C: 91.6%
[12]
  viability, T/C: 114%
[13]
  viability, T/C: 100%
[14]
  viability, T/C: 99.5%
[15]
  viability, T/C: 95.9%
[16]
  viability, T/C: 90.1%
[17]
  viability, T/C: 98.3%
[18]
  viability, T/C: 112%
[19]
  viability, T/C: 90%
[20]
  viability, T/C: 84.8%
[21]
  viability, T/C: 87.9%
[22]
  viability, T/C: 85.4%
[23]
  viability, T/C: 95.9%
[24]
  viability, T/C: 104%
[25]
  viability, T/C: 83.5%
[26]
  viability, T/C: 80.7%
[27]
  viability, T/C: 85.7%
[28]
  viability, T/C: 78.9%
[29]
  viability, T/C: 89.7%
[30]
  viability, T/C: 105%
[31]
  viability, T/C: 70.7%
[32]
  viability, T/C: 75.5%
[33]
  viability, T/C: 85.4%
[34]
  viability, T/C: 78.9%
[35]
  viability, T/C: 95.2%
[36]
  viability, T/C: 99.5%
[37]
  viability, T/C: 75.7%
[38]
  viability, T/C: 73.6%
[39]
  viability, T/C: 86.7%
[40]
  viability, T/C: 78.9%
[41]
  viability, T/C: 90.1%
[42]
  viability, T/C: 93.4%
